The values that follow come from US20260097037A1, “FUSED RING COMPOUND HAVING GLP-1 RECEPTOR AGONIST EFFECT” (Shionogi & Co., Ltd., priority 2022, published 2026).

This test concerns the target T1, Human GLP-1 receptor stably expressing cells (hGLP-1R/CHO-K1 cells) (Homo sapiens, UniProt P43220).
T1 construct: expressed in transfected cells
Put plainly: Measurement of GLP-1 receptor agonist activity (cAMP assay). The format is cell-based. The conditions noted are these: for Emax: CHO-K1, maximum effect, cAMP with 2 nM human GLP-1 (7-36) = 100%, DMSO only = 0%, read-out: Emax; for EC50: increase in cAMP concentration in hGLP-1R/CHO-K1 cells, 37° C. 1 hour. The essentials:
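hGLP-1R/CHO-K1 cells (cryopreserved) incubated with compound and forskolin in HBSS with 0.1% BSA, IBMX and RO20-1724, 1 h at 37° C; cAMP read by HTRF. EC50 and Emax from cAMP rise, normalised to 2 nM human GLP-1 (7-36) (100%) and DMSO (0%).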

T1 sequence (P43220 24-463): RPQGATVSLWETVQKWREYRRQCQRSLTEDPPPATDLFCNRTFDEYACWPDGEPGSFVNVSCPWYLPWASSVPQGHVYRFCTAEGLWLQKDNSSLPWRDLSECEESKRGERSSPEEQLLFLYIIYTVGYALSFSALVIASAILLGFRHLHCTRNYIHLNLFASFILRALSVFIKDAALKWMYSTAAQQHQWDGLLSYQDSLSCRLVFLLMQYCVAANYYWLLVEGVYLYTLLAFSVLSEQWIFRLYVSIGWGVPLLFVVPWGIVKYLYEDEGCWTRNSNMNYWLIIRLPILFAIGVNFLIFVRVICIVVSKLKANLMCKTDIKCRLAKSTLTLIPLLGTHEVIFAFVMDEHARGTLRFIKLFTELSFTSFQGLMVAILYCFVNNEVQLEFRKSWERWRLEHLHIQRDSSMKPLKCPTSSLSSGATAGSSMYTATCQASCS

Turning to `C[C@H]1c2nc(OCc3ccc(OC(F)F)cc3F)c(C#N)cc2CCN1Cc1nc2c(Cl)cc(C(=O)O)cc2n1C[C@@H]1CCO1` [Compound I-186], the Emax came to 123% and the midpoint of the response, the EC50, lay at 0.466 nM.

As for `C[C@H]1c2nc(OCc3ccccc3Cl)c(C#N)cc2CCN1Cc1nc2c(Cl)cc(C(=O)O)cc2n1C[C@@H]1CCO1` [Compound I-181], the Emax is 120% and the EC50 is 0.531 nM.

Turning to `COc1cc(C(=O)O)cc2c1nc(CN1CCc3cc(C(F)(F)F)c(NCc4cc(F)c(Cl)cc4F)nc3[C@@H]1C)n2C[C@@H]1CCO1` [Compound I-177], the maximum response (Emax) was 113% and the response was half-maximal at 0.0195 nM (EC50).

Take `C[C@H]1c2nc(OCc3ccc(Cl)cc3Cl)c(Cl)cc2CCN1Cc1nc2c(F)cc(C(=O)O)cc2n1C[C@@H]1CCO1` [Compound I-084]: the Emax is 94.7% and a half-maximal response (EC50) required 0.0587 nM.

Turning to `C[C@H]1c2cc(OCc3c(F)cc(F)cc3F)c(C(F)F)cc2CCN1Cc1nc2ccc(C(=O)O)cc2n1C[C@@H]1CCO1` [Compound I-013], the Emax was found to be 114% and the midpoint of the response, the EC50, lay at 4.21 nM.

`C[C@H]1c2nc(OCc3ccc(Cl)cc3Cl)c(C(F)F)cc2CCN1Cc1nc2c(F)cc(C(=O)O)cc2n1C[C@@H]1CCO1` [Compound I-111]: the Emax is 110% and the EC50 turned out to be 0.0683 nM.

Take `C[C@H]1c2nc(NCc3ccc(Cl)cc3)c(C(F)(F)F)cc2CCN1Cc1nc2c(Cl)cc(C(=O)O)cc2n1C[C@@H]1CCO1` [Compound I-168]: the Emax was found to be 104% and the EC50 came out at 0.193 nM.

Take `COc1cc(C(=O)O)cc2c1nc(CN1CCc3cc(C(F)F)c(OCc4ccc(Cl)cc4F)nc3[C@@H]1C)n2C[C@@H]1CCO1` [Compound I-128]: the Emax came out at 128% and a half-maximal response (EC50) required 0.0122 nM.

Take `C[C@H]1c2nc(OCc3ccc(Cl)cc3F)c(C(F)(F)F)cc2CCN1Cc1nc2c(-c3cccnc3)cc(C(=O)O)cc2n1C[C@@H]1CCO1` [Compound I-190]: the Emax was determined as 93.3% and the EC50 is 4.29 nM.

As to `C[C@H]1c2nc(OCc3ccc(C#N)cc3F)c(C(F)F)cc2CCN1Cc1nc2ccc(C(=O)O)c(F)c2n1C[C@@H]1CCO1` [Compound I-127], the Emax was 121% and it took 0.104 nM to reach a half-maximal effect (EC50).

Take `C[C@H]1c2nc(NCc3ccc(Cl)cc3F)c(C(F)(F)F)cc2CCN1Cc1nc2ccc(C(=O)O)cc2n1C[C@@H]1CCO1` [Compound I-094]: the Emax was determined as 103% and the EC50 turned out to be 0.256 nM.

With `COc1cc(C(=O)O)cc2c1nc(CN1CCc3cc(Cl)c(OCc4ccc(C)cc4)nc3[C@@H]1C)n2C[C@@H]1CCO1` [Compound I-067], the Emax stood at 98.3% and a half-maximal effect (EC50) was put at 0.0605 nM.

With `C[C@H]1c2nc(OCc3ccc(Cl)cc3F)c(C#N)cc2CCN1Cc1nc2c(Cl)cc(C(=O)O)cc2n1C[C@@H]1CCO1` [Compound I-184], the Emax was found to be 118% and a half-maximal response (EC50) required 0.073 nM.

Consider `C[C@H]1c2nc(OCc3c(F)cc(Cl)cc3F)c(C#N)cc2CCN1Cc1nc2c(Cl)cc(C(=O)O)cc2n1C[C@@H]1CCO1` [Compound I-185], for which the Emax was 122% and it took 0.0569 nM to reach a half-maximal effect (EC50).

`C[C@H]1c2nc(NCc3cc(F)c(Cl)cc3F)c(C(F)(F)F)cc2CCN1Cc1nc2c(Cl)cc(C(=O)O)cc2n1C[C@@H]1CCO1` [Compound I-176]: the Emax turned out to be 112% and a half-maximal effect (EC50) was put at 0.0693 nM.

With `C[C@H]1c2nc(CCc3ccc(Cl)cc3)c(C(F)(F)F)cc2CCN1Cc1nc2ccc(C(=O)O)cc2n1C[C@@H]1CCO1` [Compound I-095], the Emax came out at 102% and the EC50 came out at 0.716 nM.

For the molecule `COc1cc(C(=O)O)cc2c1nc(CN1CCc3cc(C(F)(F)F)c(NCc4c(F)cc(Cl)cc4F)nc3[C@@H]1C)n2C[C@@H]1CCO1` [Compound I-171], the Emax stood at 124% and the EC50 was found to be 0.0152 nM.

Consider `C[C@H]1c2nc(OCc3c(F)cc(F)cc3F)c(Cl)cc2CCN1Cc1nc2ccc(C(=O)O)cc2n1C[C@@H]1CCO1` [Compound I-025], for which the maximum response (Emax) is 113% and the EC50 was 0.307 nM.

With `C[C@H]1c2nc(OCc3ccc(Cl)cc3)c(C(F)F)cc2CCN1Cc1nc2ccc(C(=O)O)c(F)c2n1C[C@@H]1CCO1` [Compound I-118], the Emax was found to be 113% and a half-maximal response (EC50) required 0.105 nM.

Take `C[C@H]1c2nc(NCc3ccc(C#N)cc3F)c(C(F)(F)F)cc2CCN1Cc1nc2c(F)cc(C(=O)O)cc2n1C[C@@H]1CCO1` [Compound I-193]: the Emax amounted to 110% and the EC50 is 0.211 nM.

As to `COc1cc(Cl)ccc1COc1cc2c(cc1C(F)F)CCN(Cc1nc3ccc(C(=O)O)cc3n1C[C@@H]1CCO1)[C@H]2C` [Compound I-006], the maximal response (Emax) was determined as 130% and the EC50 turned out to be 0.308 nM.

In the case of `C[C@H]1c2nc(OCc3ccc(Cl)cc3F)ncc2CCN1Cc1nc2ccc(C(=O)O)cc2n1C[C@@H]1CCO1` [Compound I-080], the Emax is 88.3% and the EC50 is 9.31 nM.

For `C[C@H]1c2nc(OCc3cc(F)c(Cl)cc3F)c(Cl)cc2CCN1Cc1nc2ccc(C(=O)O)cc2n1C[C@@H]1CCO1` [Compound I-021], the Emax is 112% and a half-maximal response (EC50) required 0.0833 nM.

Take `C[C@H]1c2nc(OCc3ncc(Cl)s3)c(C(F)(F)F)cc2CCN1Cc1nc2ccc(C(=O)O)cc2n1C[C@@H]1CCO1` [Compound I-048]: the Emax stood at 93.7% and the EC50 turned out to be 3.31 nM.

`C[C@H]1c2nc(OCc3c(F)cc(Cl)cc3F)c(C(F)F)cc2CCN1Cc1nc2ccc(C(=O)O)c(F)c2n1C[C@@H]1CCO1` [Compound I-124]: the Emax is 115% and it took 0.038 nM to reach a half-maximal effect (EC50).

Take `Cc1noc(COc2nc3c(cc2C(F)(F)F)CCN(Cc2nc4ccc(C(=O)O)cc4n2C[C@@H]2CCO2)[C@H]3C)n1` [Compound I-162]: the Emax came out at 88% and the EC50 amounted to 26 nM.

As to `C[C@H]1c2nc(OCc3cc(F)c(Cl)cc3F)c(C(F)F)cc2CCN1Cc1nc2ccc(C(=O)O)c(F)c2n1C[C@@H]1CCO1` [Compound I-126], the Emax was determined as 111% and the EC50 amounted to 0.0635 nM.

`C[C@H]1c2c(cc(C(F)(F)F)c3c2O[C@@](C)(c2ccc(Cl)cc2F)O3)CCN1Cc1nc2ccc(C(=O)O)cc2n1C[C@@H]1CCO1` [Compound I-047]: the Emax was 146% and a half-maximal effect (EC50) was put at 0.903 nM.

In the case of `C[C@H]1c2nc(OCc3cc(F)c(Cl)cc3F)c(C(F)F)cc2CCN1Cc1nc2ccc(C(=O)O)cc2n1C[C@@H]1CCO1` [Compound I-062], the Emax amounted to 99.3% and a half-maximal effect (EC50) was put at 0.215 nM.

With `C[C@H]1c2nc(OCc3c(F)cc(Cl)cc3F)c(C(F)F)cc2CCN1Cc1nc2ccc(C(=O)O)cc2n1C[C@@H]1CCO1` [Compound I-060], the Emax turned out to be 105% and the EC50 was found to be 0.147 nM.

Turning to `COc1cc(C(=O)O)cc2c1nc(CN1CCc3cc(Cl)c(OCc4ccc(Cl)cc4)nc3[C@@H]1C)n2C[C@@H]1CCO1` [Compound I-066], the maximal effect (Emax) turned out to be 106% and the response was half-maximal at 0.0375 nM (EC50).

Consider `COc1cc(C(=O)O)cc2c1nc(CN1CCc3cc(Cl)c(OCc4ccccc4Cl)nc3[C@@H]1C)n2C[C@@H]1CCO1` [Compound I-068], for which the maximum response (Emax) was 112% and the EC50 stood at 0.194 nM.

In the case of `C[C@H]1c2nc(NCc3ccc(Cl)cc3F)c(C(F)(F)F)cc2CCN1Cc1nc2c(F)cc(C(=O)O)cc2n1C[C@@H]1CCO1` [Compound I-152], the Emax was 105% and the EC50 was 0.0992 nM.

`C[C@H]1c2c(cc(C(F)(F)F)c3c2O[C@@](C)(c2ccc(Cl)cn2)O3)CCN1Cc1nc2c(Cl)cc(C(=O)O)cc2n1C[C@@H]1CCO1` [Compound I-158]: the Emax was found to be 111% and a half-maximal response (EC50) required 0.493 nM.

`C[C@H]1c2nc(OCc3ccc(Cl)c4ccoc34)c(C(F)(F)F)cc2CCN1Cc1nc2ccc(C(=O)O)cc2n1C[C@@H]1CCO1` [Compound I-014]: the Emax is 128% and it took 0.171 nM to reach a half-maximal effect (EC50).

With `COc1cc(C(=O)O)cc2c1nc(CN1CCc3cc(C(F)(F)F)c(NCc4ccc(C#N)cc4F)nc3[C@@H]1C)n2C[C@@H]1CCO1` [Compound I-195], the Emax worked out at 123% and the response was half-maximal at 0.0514 nM (EC50).

Usually Emax stands for the greatest response seen or fitted, relative to the assay's reference. The term EC50 denotes the concentration needed to bring the measured effect to its halfway point. Read a high EC50 as a less potent agent.
